Experimental data from patent US8937092B2, “Aryl or N-heteroaryl substituted methanesulfonamide derivatives as vanilloid receptor ligands” (Gruenenthal GmbH, priority 2011, dated 2015).

Biological target: vanilloid receptor 1 (VR1/TRPV1 receptor) (Homo sapiens, UniProt Q8NER1)
Assay: Functional FLIPR Ca2+ influx assay on vanilloid receptor 1, capsaicin (Cap) stimulus
Type: cell-based
Conditions: for inhibition at 5 µM: read-out: (f) inhibition (human being), Cap, @5 μM; for Ki: Ki from IC50 by Cheng-Prusoff, read-out: (f) Ki (human being) [nM], Cap
Experimental: Furthermore, preference may be given to compounds according to the invention that cause a 50 percent displacement of capsaicin, which is present at a concentration of 100 nM, in a FLIPR assay with CHO K1 cells which were transfected with the human VR1 gene at a concentration of less than 2,000 nM, preferably less than 1,000 nM, particularly preferably less than 300 nM, most particularly preferably less than 100 nM, even more preferably less than 75 nM, additionally preferably less than 50 nM, most preferably less than 10 nM.
In the process, the Ca^2+ influx is quantified in the FLIPR assay with the aid of a Ca^2+-sensitive dye (type Fluo-4, Molecular Probes Europe BV, Leiden, the Netherlands) in a fluorescent imaging plate reader (FLIPR, Molecular Devices, Sunnyvale, USA), as described hereinafter.
Pharmacological Methods I. Functional Testing Carried Out on the Vanilloid Receptor 1 (VRI/TRPV1 Receptor) […]
The number of cells in the suspension is set to 3×10^5 per mL and 150 μL of this suspension are in each case introduced into a recess in the cell culture plates coated as described hereinbefore. In the incubator the plates are left for two to three days at 37° C., 5% by volume of CO2 and 95% relative humidity. Subsequently, the cells are loaded with 2 μM of Fluo-4 and 0.01% by volume of Pluronic F127 (Molecular Probes Europe BV, Leiden, the Netherlands) in HBSS buffer (Hank's buffered saline solution, Gibco Invitrogen GmbH, Karlsruhe, Germany) for 30 min at 37° C., washed 3 times with HBSS buffer and after further incubation for 15 minutes at room temperature used for Ca^2+ measurement in a FLIPR assay. The Ca^2+-dependent fluorescence is in this case measured before and after the addition of substances (λex=488 nm, λem=540 nm). Quantification is carried out by measuring the highest fluorescence intensity (FC, fluorescence counts) over time.
The FLIPR protocol consists of 2 substance additions. First the compounds to be tested (10 μM) are pipetted onto the cells and the Ca^2+ influx is compared with the control (capsaicin 10 μM). This provides the result in % activation based on the Ca^2+ signal after the addition of 10 μM of capsaicin (CP). After 5 minutes' incubation, 100 nM of capsaicin are applied and the Ca^2+ influx is also determined.
Desensitising agonists and antagonists lead to suppression of the Ca^2+ influx. The % inhibition is calculated compared to the maximum achievable inhibition with 10 μM of capsazepine.
Triple analyses (n=3) are carried out and repeated in at least 3 independent experiments (N=4).
Starting from the percentage displacement caused by different concentrations of the compounds to be tested of general formula I, IC50 inhibitory concentrations which cause a 50-percent displacement of capsaicin were calculated. K, values for the test substances were obtained by conversion by means of the Cheng-Prusoff equation (Cheng, Prusoff; Biochem. Pharmacol. 22, 3099-3108, 1973).
The affinity of the compounds according to the invention for the vanilloid receptor 1 (VR1/TRPV1 receptor) was determined as described herein before (pharmacological method I).
The value after the “@” symbol indicates the concentration at which the inhibition (as a percentage) was respectively determined.

Cc1cccc(-c2nc(C(F)(F)F)ccc2CNC(=O)[C@H](C)c2ccc(CNS(C)(=O)=O)c(F)c2)c1 [Example 26, (R)-2-(3-fluoro-4-(methylsulfonamidomethyl)phenyl)-N-((2-m-tolyl-6-(trifluoromethyl)pyridin-3-yl)methyl)propanamide]
inhibition at 5 µM: 33%

Cc1cccc(-c2nc(C(F)(F)F)ccc2CNC(=O)Nc2ccc(CNS(C)(=O)=O)c(F)c2)c1 [Example 27, N-(2-fluoro-4-(3-((2-m-tolyl-6-(trifluoromethyl)pyridin-3-yl)methyl)ureido)benzyl)methanesulfonamide]
Ki: 10 nM

Cc1ccc(-c2nc(C(F)(F)F)ccc2CNC(=O)C(C)c2ccc(CNS(C)(=O)=O)c(F)c2)cc1 (centres unmarked) [Example 29, 2-(3-fluoro-4-(methylsulfonamidomethyl)phenyl)-N-((2-p-tolyl-6-(trifluoromethyl)pyridin-3-yl)methyl)propanamide]
Ki: 32 nM

Cc1cccc(-c2nc(C(F)(F)F)ccc2CNC(=O)C(C)c2ccc(CNS(C)(=O)=O)c(F)c2)c1C (centres unmarked) [Example 30, N-((2-(2,3-dimethylphenyl)-6-(trifluoromethyl)pyridin-3-yl)methyl)-2-(3-fluoro-4-(methylsulfonamidomethyl)phenyl)propanamide]
Ki: 41 nM

Cc1ccc(-c2nc(C(F)(F)F)ccc2CNC(=O)C(C)c2ccc(CNS(C)(=O)=O)c(F)c2)cc1C (centres unmarked) [Example 31, N-((2-(3,4-dimethylphenyl)-6-(trifluoromethyl)pyridin-3-yl)methyl)-2-(3-fluoro-4-(methylsulfonamidomethyl)phenyl)propanamide]
Ki: 28 nM

Cc1cc(C)cc(-c2nc(C(F)(F)F)ccc2CNC(=O)C(C)c2ccc(CNS(C)(=O)=O)c(F)c2)c1 (centres unmarked) [Example 32, N-((2-(3,5-dimethylphenyl)-6-(trifluoromethyl)pyridin-3-yl)methyl)-2-(3-fluoro-4-(methylsulfonamidomethyl)phenyl)propanamide]
Ki: 22 nM

Cc1ccc(C)c(-c2nc(C(F)(F)F)ccc2CNC(=O)C(C)c2ccc(CNS(C)(=O)=O)c(F)c2)c1 (centres unmarked) [Example 33, N-((2-(2,5-dimethylphenyl)-6-(trifluoromethyl)pyridin-3-yl)methyl)-2-(3-fluoro-4-(methylsulfonamidomethyl)phenyl)propanamide]
inhibition at 5 µM: 35%

Cc1cccc(-c2nc(C(F)(F)F)ccc2CNC(=O)C(C)c2ccc(CNS(C)(=O)=O)c(F)c2)c1F (centres unmarked) [Example 34, N-((2-(2-fluoro-3-methylphenyl)-6-(trifluoromethyl)pyridin-3-yl)methyl)-2-(3-fluoro-4-(methylsulfonamidomethyl)phenyl)propanamide]
Ki: 27 nM

Cc1cc(-c2nc(C(F)(F)F)ccc2CNC(=O)C(C)c2ccc(CNS(C)(=O)=O)c(F)c2)ccc1F (centres unmarked) [Example 35, N-((2-(4-fluoro-3-methylphenyl)-6-(trifluoromethyl)pyridin-3-yl)methyl)-2-(3-fluoro-4-(methylsulfonamidomethyl)phenyl)propanamide]
Ki: 7 nM

Cc1cc(F)cc(-c2nc(C(F)(F)F)ccc2CNC(=O)C(C)c2ccc(CNS(C)(=O)=O)c(F)c2)c1 (centres unmarked) [Example 36, 2-(3-fluoro-4-(methylsulfonamidomethyl)phenyl)-N-((2-(3-fluoro-5-methylphenyl)-6-(trifluoromethyl)pyridin-3-yl)methyl)propanamide]
Ki: 63 nM

Cc1ccc(F)c(-c2nc(C(F)(F)F)ccc2CNC(=O)C(C)c2ccc(CNS(C)(=O)=O)c(F)c2)c1 (centres unmarked) [Example 37, 2-(3-fluoro-4-(methylsulfonamidomethyl)phenyl)-N-((2-(2-fluoro-5-methylphenyl)-6-(trifluoromethyl)pyridin-3-yl)methyl)propanamide]
Ki: 16 nM

Cc1cc(-c2nc(C(F)(F)F)ccc2CNC(=O)C(C)c2ccc(CNS(C)(=O)=O)c(F)c2)ccc1C#N (centres unmarked) [Example 39, N-((2-(4-cyano-3-methylphenyl)-6-(trifluoromethyl)pyridin-3-yl)methyl)-2-(3-fluoro-4-(methylsulfonamidomethyl)phenyl)propanamide]
Ki: 66 nM

COc1c(C)cccc1-c1nc(C(F)(F)F)ccc1CNC(=O)C(C)c1ccc(CNS(C)(=O)=O)c(F)c1 (centres unmarked) [Example 42, 2-(3-fluoro-4-(methylsulfonamidomethyl)phenyl)-N-((2-(2-methoxy-3-methylphenyl)-6-(trifluoromethyl)pyridin-3-yl)methyl)propanamide]
Ki: 65 nM

COc1ccc(-c2nc(C(F)(F)F)ccc2CNC(=O)C(C)c2ccc(CNS(C)(=O)=O)c(F)c2)cc1C (centres unmarked) [Example 43, 2-(3-fluoro-4-(methylsulfonamidomethyl)phenyl)-N-((2-(4-methoxy-3-methylphenyl)-6-(trifluoromethyl)pyridin-3-yl)methyl)propanamide]
Ki: 35 nM

COc1cc(C)cc(-c2nc(C(F)(F)F)ccc2CNC(=O)C(C)c2ccc(CNS(C)(=O)=O)c(F)c2)c1 (centres unmarked) [Example 44, 2-(3-fluoro-4-(methylsulfonamidomethyl)phenyl)-N-((2-(3-methoxy-5-methylphenyl)-6-(trifluoromethyl)pyridin-3-yl)methyl)propanamide]
Ki: 106 nM

COc1ccc(C)cc1-c1nc(C(F)(F)F)ccc1CNC(=O)C(C)c1ccc(CNS(C)(=O)=O)c(F)c1 (centres unmarked) [Example 45, 2-(3-fluoro-4-(methylsulfonamidomethyl)phenyl)-N-((2-(2-methoxy-5-methylphenyl)-6-(trifluoromethyl)pyridin-3-yl)methyl)propanamide]
inhibition at 1 µM (inhibition at 1 μM, read-out: (f) inhibition (human being), Cap, @1 μM): 15%

CCOc1ccc(-c2nc(C(F)(F)F)ccc2CNC(=O)C(C)c2ccc(CNS(C)(=O)=O)c(F)c2)cc1C (centres unmarked) [Example 46, N-((2-(4-ethoxy-3-methylphenyl)-6-(trifluoromethyl)pyridin-3-yl)methyl)-2-(3-fluoro-4-(methylsulfonamidomethyl)phenyl)propanamide]
Ki: 12 nM

CCOc1cc(C)cc(-c2nc(C(F)(F)F)ccc2CNC(=O)C(C)c2ccc(CNS(C)(=O)=O)c(F)c2)c1 (centres unmarked) [Example 47, N-((2-(3-ethoxy-5-methylphenyl)-6-(trifluoromethyl)pyridin-3-yl)methyl)-2-(3-fluoro-4-(methylsulfonamidomethyl)phenyl)propanamide]
Ki: 37 nM

COCc1cccc(-c2nc(C(F)(F)F)ccc2CNC(=O)C(C)c2ccc(CNS(C)(=O)=O)c(F)c2)c1 (centres unmarked) [Example 49, 2-(3-fluoro-4-(methylsulfonamidomethyl)phenyl)-N-((2-(3-(methoxymethyl)phenyl)-6-(trifluoromethyl)pyridin-3-yl)methyl)propanamide]
Ki: 28 nM

CC(C)c1cccc(-c2nc(C(F)(F)F)ccc2CNC(=O)C(C)c2ccc(CNS(C)(=O)=O)c(F)c2)c1 (centres unmarked) [Example 50, 2-(3-fluoro-4-(methylsulfonamidomethyl)phenyl)-N-((2-(3-isopropylphenyl)-6-(trifluoromethyl)pyridin-3-yl)methyl)propanamide]
Ki: 2 nM

CC(C(=O)NCc1ccc(C(F)(F)F)nc1-c1cccc(C(C)(C)C)c1)c1ccc(CNS(C)(=O)=O)c(F)c1 (centres unmarked) [Example 51, N-((2-(3-tert-butylphenyl)-6-(trifluoromethyl)pyridin-3-yl)methyl)-2-(3-fluoro-4-(methylsulfonamidomethyl)phenyl)propanamide]
Ki: 1 nM

CC(C(=O)NCc1ccc(C(F)(F)F)nc1-c1cccc(C(F)F)c1)c1ccc(CNS(C)(=O)=O)c(F)c1 (centres unmarked) [Example 52, N-((2-(3-(difluoromethyl)phenyl)-6-(trifluoromethyl)pyridin-3-yl)methyl)-2-(3-fluoro-4-(methylsulfonamidomethyl)phenyl)propanamide]
Ki: 7 nM

CC(C(=O)NCc1ccc(C(F)(F)F)nc1-c1cccc(N(C)C)c1)c1ccc(CNS(C)(=O)=O)c(F)c1 (centres unmarked) [Example 55, N-((2-(3-(dimethylamino)phenyl)-6-(trifluoromethyl)pyridin-3-yl)methyl)-2-(3-fluoro-4-(methylsulfonamidomethyl)phenyl)propanamide]
Ki: 42 nM
